Test results taken from US20140038896A1, “Retroelements and mental disorders and methods of measuring L1 retrotransposition” (Salk Institute for Biological Studies, priority 2009, published 2014).

What was measured:
[1] = system: endogenous rat L1 promoter region (5′UTR); experiment: ChIP of MeCP2 and Sox2 on the endogenous rat L1 promoter region in NSCs; assay type: cell-based; settings: for MeCP2 ChIP signal / association to the L1 promoter region: 500 ng/ml for 4 days
Text: ChIP assay was done essentially following the manufacturer's protocol using a ChIP assay kit (Upstate). Antibodies used were anti-MeCP2 (Upstate), Sox2 (Chemicon), and IgG. Purified DNA was amplified by PCR using primers for the rat L1 5′UTR promoter region (L1.3, accession # X03095).
(§1) Using chromatin immunoprecipitation (ChIP), high levels of MeCP2 were detected in association with the L1 promoter region (i.e., 5′UTR) in rat NSCs compared to differentiated neurons (FIG. 1F). To rule out differences in protein abundance that may differently influence ChIP amplification, western blot analysis was performed using lysates from cells that had undergone neuronal differentiation. […] Next, it was asked if releasing of MeCP2 from the methylated DNA would increase its association with Sox2 in solution. The Co-IP experiment in the presence of the 5-Aza was then repeated. […] It may be that both configurations can occur on the same L1 promoter region or each possibility is a L1 element sequence-dependent event.

L1 5′UTR CpG islands = experiment: Bisulfite analysis of L1 5′UTR DNA methylation in NSCs; assay type: cell-based, rat; settings: treatment for 4-days
Protocol: Genomic DNA from NSCs was isolated using standard phenol-chloroform extraction techniques. Subsequently, DNA was digested with the restriction enzyme EcoRI and the bisulfite conversion reaction was performed using the Epitect kit (Quiagen), following manufacturer's instructions. Primers were designed based on the rat L1 sequence Mlvi2, using Methyl Primer Express; primers for L1 converted 5′UTR region: forward 5-[…]-3′ (SEQ ID NO:1) and reverse 5′-[…]-3′ (SEQ ID NO:2). PCR products were cloned into TOPO TA 2.1 plasmids (Invitrogen) and 40 bacterial colonies were analyzed by sequencing.

MeCP2 and Sox2 = experiment: Co-immunoprecipitation between MeCP2 and Sox2; assay type: cell-based, rat; settings: in the presence of 5-Aza
Protocol: Immunofluorescence for EGFP was performed as previously described (11). A non-transgenic animal was used to measure the background fluorescence in the brain and to establish a threshold for detection. Western blotting was carried out using standard protocols with the following antibodies: mouse anti-Actin (1/500, Ambion), rabbit anti-MeCP2 (1/1000, Imgenex or Upstate), and rabbit anti-Sox2 (1/100, Chemicon). All secondary antibodies were purchased from Jackson ImmunoResearch. For co-immunoprecipitation, the Nuclear Complex Co-IP kit (Active Motif) was used, following the manufacturer's protocol with the highest stringency buffers.
as §1

Sox2 binding to the L1 promoter ([1]; 5-Aza treatment): did riot prevent
SMILES: Nc1ncn([C@@H]2O[C@H](CO)[C@@H](O)[C@H]2O)c(=O)n1 [5-Azacytidine]
MeCP2 ChIP signal / association to the L1 promoter region [1]: lost | MeCP2 ChIP signal / association to the L1 promoter region ([1]; listed as 5-Azacitidine): reduced | removal of methyl radicals from the 5′UTR L1 region (bisulfite) (L1 5′UTR CpG islands): completely removed | amount of MeCP2 in association with Sox2 in solution (Co-IP) (MeCP2 and Sox2): increased
